Assay results reported in ChEMBL document CHEMBL1795272, “Rhamnetin production based on the rational design of the poplar O-methyltransferase enzyme and its biological activities” (Bioorg Med Chem Lett, 2011).
Activity calls are given as the source filed them. The calls are words filed in the database; no cut-off is given here.

Legend:
[1] = target: Mitogen-activated protein kinase 9 (Homo sapiens) (UniProt P45984); assay: Increase in JNK2 phosphorylation in human MDA-MB-231 cells at 20 uM by Western blot analysis; format: cell-based; details: TDE = time-dependent effect
Sequence of Mitogen-activated protein kinase 9 (Homo sapiens) (P45984 whole entry, looked up): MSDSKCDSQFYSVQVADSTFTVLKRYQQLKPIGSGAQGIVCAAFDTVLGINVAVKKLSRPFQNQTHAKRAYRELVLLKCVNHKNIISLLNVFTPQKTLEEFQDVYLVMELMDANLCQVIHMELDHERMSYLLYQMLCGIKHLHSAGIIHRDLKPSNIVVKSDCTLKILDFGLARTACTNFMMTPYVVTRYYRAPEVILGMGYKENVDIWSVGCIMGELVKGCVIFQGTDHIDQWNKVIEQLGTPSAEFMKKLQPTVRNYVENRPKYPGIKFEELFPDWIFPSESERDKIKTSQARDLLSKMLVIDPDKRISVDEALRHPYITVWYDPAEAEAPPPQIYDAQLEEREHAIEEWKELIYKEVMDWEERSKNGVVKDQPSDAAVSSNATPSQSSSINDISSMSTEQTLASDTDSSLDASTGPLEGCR

MDA-MB-231 [2] = assay: Effect on JNK2 protein level in human MDA-MB-231 cells at 20 uM up to 120 mins by Western blot analysis; format: functional, cell-based
[3] = target: Mitogen-activated protein kinase 1 (Homo sapiens) (UniProt P28482); assay: Increase in ERK2 phosphorylation in human MDA-MB-231 cells at 20 uM by Western blot analysis; format: cell-based; details: TDE = time-dependent effect
Sequence of Mitogen-activated protein kinase 1 (Homo sapiens) (P28482 whole entry): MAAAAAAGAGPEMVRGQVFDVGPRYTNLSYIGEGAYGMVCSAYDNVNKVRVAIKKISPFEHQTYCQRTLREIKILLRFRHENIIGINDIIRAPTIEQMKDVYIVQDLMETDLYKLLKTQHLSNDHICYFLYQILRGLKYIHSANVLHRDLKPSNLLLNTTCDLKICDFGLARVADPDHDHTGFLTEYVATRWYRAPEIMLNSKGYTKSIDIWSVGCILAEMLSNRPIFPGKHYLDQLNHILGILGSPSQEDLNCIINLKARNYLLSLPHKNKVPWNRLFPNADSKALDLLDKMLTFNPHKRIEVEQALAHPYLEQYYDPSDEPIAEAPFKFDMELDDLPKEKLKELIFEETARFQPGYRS

MDA-MB-231 [4] = assay: Effect on JNK1 protein level in human MDA-MB-231 cells at 20 uM up to 120 mins by Western blot analysis; format: functional, cell-based
MDA-MB-231 [5] = assay: Increase in c-Fos protein expression in human MDA-MB-231 cells at 20 uM within 30 mins by Western blot analysis; format: functional, cell-based
[6] = target: MAP kinase p38 (Homo sapiens) (UniProt O15264+Q15759+Q16539+P53778); assay: Increase in p38 kinase phosphorylation in human MDA-MB-231 cells at 20 uM by Western blot analysis; format: cell-based; details: TDE = time-dependent effect
MDA-MB-231 [7] = assay: Effect on p38 kinase protein level in human MDA-MB-231 cells at 20 uM up to 120 mins by Western blot analysis; format: functional, cell-based
[8] = target: Mitogen-activated protein kinase 3 (Homo sapiens) (UniProt P27361); assay: Increase in ERK1 phosphorylation in human MDA-MB-231 cells at 20 uM by Western blot analysis; format: cell-based; details: TDE = time-dependent effect
Sequence of Mitogen-activated protein kinase 3 (Homo sapiens) (P27361 whole entry): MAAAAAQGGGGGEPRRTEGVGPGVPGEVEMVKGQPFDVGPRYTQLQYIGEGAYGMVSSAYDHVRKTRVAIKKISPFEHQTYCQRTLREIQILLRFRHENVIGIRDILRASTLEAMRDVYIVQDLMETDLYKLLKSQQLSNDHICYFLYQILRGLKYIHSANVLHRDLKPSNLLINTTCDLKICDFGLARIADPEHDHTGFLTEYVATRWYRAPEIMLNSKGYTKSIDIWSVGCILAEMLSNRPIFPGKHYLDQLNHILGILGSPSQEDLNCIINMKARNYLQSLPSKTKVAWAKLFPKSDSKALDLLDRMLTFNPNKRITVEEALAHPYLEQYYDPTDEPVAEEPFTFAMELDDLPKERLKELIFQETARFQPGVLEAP

[9] = target: Mitogen-activated protein kinase 8 (Homo sapiens) (UniProt P45983); assay: Increase in JNK1 phosphorylation in human MDA-MB-231 cells at 20 uM by Western blot analysis; format: cell-based; details: TDE = time-dependent effect
Sequence of Mitogen-activated protein kinase 8 (Homo sapiens) (P45983 whole entry): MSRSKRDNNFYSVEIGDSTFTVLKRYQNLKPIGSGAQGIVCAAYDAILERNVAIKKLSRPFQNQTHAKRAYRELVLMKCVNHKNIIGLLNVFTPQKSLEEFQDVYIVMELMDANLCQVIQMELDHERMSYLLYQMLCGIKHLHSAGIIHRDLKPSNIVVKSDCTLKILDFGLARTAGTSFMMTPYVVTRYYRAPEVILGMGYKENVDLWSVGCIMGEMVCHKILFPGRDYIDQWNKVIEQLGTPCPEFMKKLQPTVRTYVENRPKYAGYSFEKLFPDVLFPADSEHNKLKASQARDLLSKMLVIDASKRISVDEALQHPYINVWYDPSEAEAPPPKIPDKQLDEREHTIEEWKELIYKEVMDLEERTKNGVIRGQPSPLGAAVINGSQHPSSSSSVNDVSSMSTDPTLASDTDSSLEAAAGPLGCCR

[10] = Stability of the compound in DMEM media assessed as compound degradation at 25 ppm after 3 hrs by HPLC; format: physicochemical; details: read-out: Activity
MDA-MB-231 [11] = assay: Effect on ERK2 protein level in human MDA-MB-231 cells at 20 uM up to 120 mins by Western blot analysis; format: functional, cell-based
MDA-MB-231 [12] = assay: Increase in Egr-1 protein expression in human MDA-MB-231 cells at 20 uM within 30 mins by Western blot analysis; format: functional, cell-based
MDA-MB-231 [13] = assay: Effect on ERK1 protein level in human MDA-MB-231 cells at 20 uM up to 120 mins by Western blot analysis; format: functional, cell-based
MDA-MB-231 [14] = assay: Induction of apoptosis in human MDA-MB-231 cells assessed as cleaved caspase-7 accumulation at 20 uM after 12 hrs by Western blot analysis; format: functional, cell-based

Compound	Activity [1]	Activity (MDA-MB-231 [2])	Activity [3]	Activity (MDA-MB-231 [4])	Activity (MDA-MB-231 [5])	Activity [6]	Activity (MDA-MB-231 [7])	Activity [8]	Activity [9]	degraded at 3 h, 25 ppm [10] [%]	Activity (MDA-MB-231 [11])	Activity (MDA-MB-231 [12])	Activity (MDA-MB-231 [13])	Activity (MDA-MB-231 [14])
COc1cc(O)c2c(=O)c(O)c(-c3ccc(O)c(O)c3)oc2c1 [RHAMNETIN]	tde	inactive	tde	inactive	Active	tde	inactive	tde	tde	4	inactive	Active	inactive	Active
O=c1c(O)c(-c2ccc(O)c(O)c2)oc2cc(O)cc(O)c12 [QUERCETIN]	tde	inactive	tde	inactive	Active	tde	inactive	tde	tde	60	inactive	Active	inactive	Active
